Experimental data as given in the NIST ThermoML archive (doi:10.1021/je900212d).
± gives the expanded uncertainty stated by the source.

What was measured:
[1] = 101.33 kPa, Liquid
[2] = xn = mol fraction of the nth substance listed; details: 101 kPa, Liquid

CCCO [propan-1-ol]
[1]
Details	mass density [kg/m3]	viscosity [mPa·s]
288.15 K	810.5 ± 6.9	2.42 ± 0.03
293.15 K	806.5 ± 7	2.137 ± 0.027
298.15 K	803.2 ± 7.1	1.894 ± 0.024
303.15 K	799.3 ± 7.2	1.684 ± 0.021
308.15 K	795.2 ± 7.3	1.504 ± 0.019
313.15 K	790.4 ± 7.5	1.352 ± 0.017

O=Cc1ccccc1 [benzaldehyde] + ClCCCl
[2]
Details	mass density [kg/m3]	viscosity [mPa·s]
288.15 K, x1 = 0.1005	1233 ± 16	0.9491 ± 0.013
288.15 K, x1 = 0.2068	1207.2 ± 15	1.034 ± 0.015
288.15 K, x1 = 0.2964	1186.5 ± 14	1.097 ± 0.015
288.15 K, x1 = 0.3902	1166 ± 13	1.171 ± 0.016
288.15 K, x1 = 0.4888	1146.4 ± 12	1.27 ± 0.018
288.15 K, x1 = 0.5923	1125.5 ± 11	1.348 ± 0.019
288.15 K, x1 = 0.7012	1107.6 ± 10	1.454 ± 0.021
288.15 K, x1 = 0.8159	1086.7 ± 9.1	1.58 ± 0.023
288.15 K, x1 = 0.9061	1070.6 ± 8.3	1.66 ± 0.025
293.15 K, x1 = 0.1007	1227.6 ± 16	0.8854 ± 0.013
293.15 K, x1 = 0.2072	1200 ± 14	0.9592 ± 0.014
293.15 K, x1 = 0.2969	1180.5 ± 14	1.017 ± 0.015
293.15 K, x1 = 0.3909	1161.8 ± 13	1.085 ± 0.015
293.15 K, x1 = 0.4894	1139.5 ± 12	1.168 ± 0.017
293.15 K, x1 = 0.5929	1119.9 ± 11	1.242 ± 0.018
293.15 K, x1 = 0.7017	1102.2 ± 9.8	1.335 ± 0.02
293.15 K, x1 = 0.8163	1082 ± 8.8	1.445 ± 0.022
293.15 K, x1 = 0.9063	1066.4 ± 8.1	1.517 ± 0.023
298.15 K, x1 = 0.1006	1220.5 ± 15	0.8213 ± 0.012
298.15 K, x1 = 0.2069	1196.1 ± 14	0.8951 ± 0.013
298.15 K, x1 = 0.2965	1174.6 ± 13	0.9471 ± 0.014
298.15 K, x1 = 0.3904	1155.5 ± 12	1.008 ± 0.015
298.15 K, x1 = 0.4889	1133.4 ± 11	1.08 ± 0.016
298.15 K, x1 = 0.5924	1117.3 ± 10	1.151 ± 0.017
298.15 K, x1 = 0.7013	1098.6 ± 9.6	1.233 ± 0.018
298.15 K, x1 = 0.816	1077.9 ± 8.6	1.328 ± 0.02
298.15 K, x1 = 0.9061	1063.1 ± 8	1.394 ± 0.021
303.15 K, x1 = 0.1009	1214.3 ± 15	0.7706 ± 0.012
303.15 K, x1 = 0.2074	1190 ± 14	0.8362 ± 0.012
303.15 K, x1 = 0.2972	1169.8 ± 13	0.8848 ± 0.013
303.15 K, x1 = 0.3911	1150.1 ± 12	0.9515 ± 0.014
303.15 K, x1 = 0.4897	1126.5 ± 11	1.003 ± 0.015
303.15 K, x1 = 0.5932	1112.7 ± 10	1.07 ± 0.016
303.15 K, x1 = 0.702	1094.4 ± 9.4	1.143 ± 0.017
303.15 K, x1 = 0.8165	1073.2 ± 8.4	1.225 ± 0.018
303.15 K, x1 = 0.9064	1058.5 ± 7.7	1.285 ± 0.02
308.15 K, x1 = 0.1011	1206.5 ± 15	0.726 ± 0.011
308.15 K, x1 = 0.2078	1182.6 ± 14	0.7824 ± 0.012
308.15 K, x1 = 0.2976	1162.9 ± 13	0.828 ± 0.013
308.15 K, x1 = 0.3917	1144.1 ± 12	0.8897 ± 0.013
308.15 K, x1 = 0.4903	1121 ± 11	0.9346 ± 0.014
308.15 K, x1 = 0.5937	1107.8 ± 10	0.998 ± 0.015
308.15 K, x1 = 0.7025	1091 ± 9.2	1.067 ± 0.016
308.15 K, x1 = 0.8168	1068.5 ± 8.2	1.135 ± 0.017
308.15 K, x1 = 0.9066	1053 ± 7.4	1.189 ± 0.018
313.15 K, x1 = 0.1013	1198 ± 14	0.6795 ± 0.011
313.15 K, x1 = 0.2083	1173.6 ± 13	0.7327 ± 0.011
313.15 K, x1 = 0.2983	1153.9 ± 12	0.777 ± 0.012
313.15 K, x1 = 0.3924	1136.7 ± 11	0.8272 ± 0.013
313.15 K, x1 = 0.491	1115.5 ± 10	0.8725 ± 0.013
313.15 K, x1 = 0.5945	1102.2 ± 9.7	0.9318 ± 0.014
313.15 K, x1 = 0.7031	1085.5 ± 8.9	0.9944 ± 0.015
313.15 K, x1 = 0.8173	1063.1 ± 7.9	1.054 ± 0.016
313.15 K, x1 = 0.9069	1049.7 ± 7.3	1.107 ± 0.017

ClCCCl [1,2-dichloroethane] + CCCO
[2]
Details	mass density [kg/m3]	viscosity [mPa·s]
288.15 K, x2 = 0.1054	1211 ± 15	0.8441 ± 0.012
288.15 K, x2 = 0.2095	1166.4 ± 13	0.8809 ± 0.013
288.15 K, x2 = 0.3124	1121.8 ± 10	0.9238 ± 0.013
288.15 K, x2 = 0.4141	1078.4 ± 8.1	0.998 ± 0.014
288.15 K, x2 = 0.5146	1032.4 ± 5.8	1.1 ± 0.015
288.15 K, x2 = 0.6139	986 ± 4.9	1.256 ± 0.016
288.15 K, x2 = 0.7121	942.8 ± 7	1.464 ± 0.019
288.15 K, x2 = 0.8092	895.4 ± 9.4	1.726 ± 0.022
288.15 K, x2 = 0.9051	843.5 ± 12	2.029 ± 0.025
293.15 K, x2 = 0.1054	1205 ± 14	0.785 ± 0.012
293.15 K, x2 = 0.2096	1159.7 ± 12	0.8086 ± 0.012
293.15 K, x2 = 0.3126	1116.2 ± 10	0.8504 ± 0.012
293.15 K, x2 = 0.4143	1072.1 ± 7.8	0.9115 ± 0.013
293.15 K, x2 = 0.5148	1026.6 ± 5.5	0.9988 ± 0.014
293.15 K, x2 = 0.6141	980.6 ± 5.1	1.139 ± 0.015
293.15 K, x2 = 0.7123	938.6 ± 7.2	1.31 ± 0.017
293.15 K, x2 = 0.8093	890.5 ± 9.6	1.534 ± 0.02
293.15 K, x2 = 0.9052	839.4 ± 12	1.795 ± 0.023
298.15 K, x2 = 0.1054	1199.2 ± 14	0.7324 ± 0.011
298.15 K, x2 = 0.2095	1154.4 ± 12	0.7472 ± 0.011
298.15 K, x2 = 0.3124	1109.3 ± 9.7	0.7831 ± 0.012
298.15 K, x2 = 0.4141	1067.1 ± 7.6	0.8368 ± 0.012
298.15 K, x2 = 0.5146	1021.3 ± 5.2	0.911 ± 0.013
298.15 K, x2 = 0.614	976.2 ± 5.3	1.035 ± 0.014
298.15 K, x2 = 0.7122	934 ± 7.4	1.176 ± 0.015
298.15 K, x2 = 0.8092	885.9 ± 9.8	1.37 ± 0.018
298.15 K, x2 = 0.9052	836.3 ± 12	1.603 ± 0.02
303.15 K, x2 = 0.1056	1192.6 ± 14	0.6845 ± 0.011
303.15 K, x2 = 0.2099	1147.7 ± 12	0.7003 ± 0.011
303.15 K, x2 = 0.3129	1104.2 ± 9.4	0.7255 ± 0.011
303.15 K, x2 = 0.4146	1061.1 ± 7.3	0.7704 ± 0.011
303.15 K, x2 = 0.5151	1016 ± 5	0.8342 ± 0.012
303.15 K, x2 = 0.6144	970.5 ± 5.6	0.9344 ± 0.013
303.15 K, x2 = 0.7125	929.7 ± 7.7	1.061 ± 0.014
303.15 K, x2 = 0.8095	882.6 ± 10	1.228 ± 0.016
303.15 K, x2 = 0.9053	832.8 ± 12	1.441 ± 0.018
308.15 K, x2 = 0.1057	1183.4 ± 13	0.64 ± 0.01
308.15 K, x2 = 0.21	1140.7 ± 11	0.6502 ± 0.01
308.15 K, x2 = 0.3131	1097.2 ± 9.1	0.6731 ± 0.011
308.15 K, x2 = 0.4149	1054.9 ± 6.9	0.7116 ± 0.011
308.15 K, x2 = 0.5154	1009.5 ± 4.6	0.7657 ± 0.011
308.15 K, x2 = 0.6147	964 ± 6	0.8541 ± 0.012
308.15 K, x2 = 0.7128	924.3 ± 7.9	0.9603 ± 0.013
308.15 K, x2 = 0.8097	877.3 ± 10	1.105 ± 0.015
308.15 K, x2 = 0.9054	827.5 ± 13	1.303 ± 0.017
313.15 K, x2 = 0.1058	1174.9 ± 13	0.6002 ± 0.0099
313.15 K, x2 = 0.2103	1133.5 ± 11	0.6056 ± 0.01
313.15 K, x2 = 0.3134	1089 ± 8.7	0.6256 ± 0.01
313.15 K, x2 = 0.4152	1047.4 ± 6.6	0.6588 ± 0.01
313.15 K, x2 = 0.5158	1004 ± 4.4	0.706 ± 0.011
313.15 K, x2 = 0.615	956.7 ± 6.3	0.7849 ± 0.012
313.15 K, x2 = 0.7131	918.9 ± 8.2	0.8728 ± 0.013
313.15 K, x2 = 0.8099	870.1 ± 11	0.9952 ± 0.014
313.15 K, x2 = 0.9055	821.5 ± 13	1.176 ± 0.015
